Biological target: recombinant human ACC1 (rhACC1) (Homo sapiens (Human), UniProt Q13085)
Assay: Transcreener ADP detection FP assay, direct inhibition of rhACC1
Assay type: biochemical
Conditions: Geomean IC50, n ≥ 2 unless * then n = 1; 50 μM ATP, 30 μM acetyl-CoA
Description: The direct inhibition of ACC1 for the compounds of the present invention was determined using preparations of recombinant human ACC1 (rhACC1) (SEQ ID NO. 1)
Two liters of SF9 cells, infected with recombinant baculovirus containing full length human ACC1 cDNA, were suspended in ice-cold lysis buffer (25 mM Tris, pH 7.5; 150 mM NaCl; 10% glycerol; 5 mM imidazole (EMD Bioscience; Gibbstown, NJ); 2 mM TCEP (BioVectra; Charlottetown, Canada); Benzonase nuclease (10000 U/100 g cell paste; Novagen; Madison, WI); EDTA-free protease inhibitor cocktail (1 tab/50 ml; Roche Diagnostics; Mannheim, Germany). Cells were lysed by 3 cycles of freeze-thaw and centrifuged at 40,000×g for 40 minutes (4° C.). Supernatant was directly loaded onto a HisTrap FF crude column (GE Healthcare; Piscataway, NJ) and eluted with an imidazole gradient up to 0.5 M over 20 column volumes (CV). ACC1-containing fractions were pooled and diluted 1:5 with 25 mM Tris, pH 7.5, 2 mM TCEP, 10% glycerol and direct loaded onto a CaptoQ (GE Healthcare) column and eluted with an NaCl gradient up to 1 M over 20 CV's. Phosphate groups were removed from purified ACC1 by incubation with lambda phosphatase (100 U/10 μM target protein; New England Biolabs; Beverly, MA) for 14 hours at 4° C.; okadaic acid was added (1 μM final concentration; Roche Diagnostics) to inhibit the phosphatase. Purified ACC1 was exchanged into 25 mM Tris, pH 7.5, 2 mM TCEP, 10% glycerol, 0.5 M NaCl by 6 hour dialysis at 4° C. Aliquots were prepared and frozen at −80° C.
Measurement of rhACC1 Inhibition rhACC1 was assayed in a Corning #3820 (Corning, Tewksbury, MA) 384-well plate using the Transcreener ADP detection FP assay kit (Bellbrook Labs, Madison, Wisconsin) using the manufacturer's recommended conditions for a 50 μM ATP reaction. The final conditions for the assay were 50 mM HEPES, pH 7.2, 10 mM MgCl2, 7.5 mM tripotassium citrate, 2 mM DTT, 0.1 mg/mL BSA, 30 μM acetyl-CoA, 50 μM ATP, and 10 mM KHCO3. Typically, a […] was run for 60 min at room temp, and 10 μl of Transcreener stop and detect buffer was added and the combination incubated at room temp for an overnight (18 hours). The data was acquired on an Envision Fluorescence reader (PerkinElmer) using a 620 excitation Cy5 FP general dual mirror, 620 excitation Cy5 FP filter, 688 emission (S) and a 688 (P) emission filter.

Row | IC50 [nM] | Molecule
1 | 4.6 | CC(C)(C)Nc1ccc2ccc(C(=O)N3CCC4(CC3)CC(=O)c3nc(C(C)(C)C)sc3C4)cc2n1 [Example 70]
2 | 4.6 | CC(C)Nc1ccc2ccc(C(=O)N3CCC4(CC3)CC(=O)c3nc(C(C)(C)C)sc3C4)cc2n1 [Example 30, 2-(tert-butyl)-1′-(2-(isopropylamino)quinoline-7-carbonyl)-5H-spiro[benzo[d]thiazole-6,4′-piperidin]-4(7H)-one]
3 | 7.1 | COc1ccc2ccc(C(=O)N3CCC4(CC3)CC(=O)c3nc(C(C)(C)C)sc3C4)cc2c1 [Example 58]
4 | 14 | Cc1cccc2ccc(C(=O)N3CCC4(CC3)CC(=O)c3nc(C(C)(C)C)sc3C4)cc12 [Example 91]
5 | 7 | Cc1c(O)c(C(=O)N2CCC3(CC2)CC(=O)c2nc(C(C)(C)C)sc2C3)cc2ccccc12 [Example 85]
6 | 19.7 | CC(C)(C)c1nc2c(s1)CC1(CCN(C(=O)c3ccc4ccccc4c3O)CC1)CC2=O [Example 63]
7 | 0.9 | CN(C)c1cc(C(=O)N2CCC3(CC2)CC(=O)c2nc(C(C)(C)C)sc2C3)cc(-c2ccc(C(N)=O)cc2)n1 [Example 22, 4-(4-(2-(tert-butyl)-4-oxo-4,7-dihydro-5H-spiro[benzo[d]thiazole-6,4′-piperidine]-1′-carbonyl)-6-(dimethylamino)pyridin-2-yl)benzamide]
8 | 13 | CC(C)(C)c1nc2c(s1)CC1(CCN(C(=O)c3ccc4[nH]cc(Cl)c4c3)CC1)CC2=O [Example 65]
9 | 3.6 | Cc1cc(C(=O)N2CCC3(CC2)CC(=O)c2nc(C(C)(C)C)sc2C3)cc2[nH]ccc12 [Example 62]
10 | 22.4 | Cc1c[nH]c2cc(C(=O)N3CCC4(CC3)CC(=O)c3nc(C(C)(C)C)sc3C4)ccc12 [Example 51]
11 | 13.6 | CNc1cc(C(=O)N2CCC3(CC2)CC(=O)c2nc(C(C)(C)C)sc2C3)cc(-c2ccccc2)n1 [Example 71]
12 | 85.9 | COc1nccc2ccc(C(=O)N3CCC4(CC3)CC(=O)c3nc(C(C)(C)C)sc3C4)cc12 [Example 46]
13 | 10000 | Cc1cc(C(=O)N2CCC3(CC2)CC(=O)c2nc(C(C)(C)C)sc2C3)cc2cccnc12 [Example 48]
14 | 26.1 | Cc1ccnc2c(C)cc(C(=O)N3CCC4(CC3)CC(=O)c3nc(C(C)(C)C)sc3C4)cc12 [Example 96]
15 | 11.8 | Cc1c[nH]c2ccc(C(=O)N3CCC4(CC3)CC(=O)c3nc(C(C)(C)C)sc3C4)cc12 [Example 64]

The next lines start with the molecule.

Row | Molecule | IC50 [nM]
16 | CN(C)c1cc(C(=O)N2CCC3(CC2)CC(=O)c2nc(C(C)(C)C)sc2C3)cc(-c2ccccc2)n1 [Example 68] | 3.9
17 | Cc1n[nH]c2c(C)cc(C(=O)N3CCC4(CC3)CC(=O)c3nc(C56CC(C5)C6)sc3C4)cc12 [Example 7, 2-(bicyclo[1.1.1]pentan-1-yl)-1′-(3,7-dimethyl-1H-indazole-5-carbonyl)-5H-spiro[benzo[d]thiazole-6,4′-piperidin]-4(7H)-one] | 11
18 | Cc1ccc(C)c2[nH]c(C(=O)N3CCC4(CC3)CC(=O)c3nc(C(C)(C)C)sc3C4)cc12 [Example 55] | 3.5
19 | COc1cc(C(=O)N2CCC3(CC2)CC(=O)c2nc(C(C)(C)C)sc2C3)cc2cc(C3CC3)cnc12 [Example 104] | 6.7
20 | COc1cnc2c(OC)cc(C(=O)N3CCC4(CC3)CC(=O)c3nc(C(C)(C)C)sc3C4)cc2c1 [Example 101] | 10.1
21 | CCc1nn(C)c2c(OC)cc(C(=O)N3CCC4(CC3)CC(=O)c3nc(C(C)(C)C)sc3C4)cc12 [Example 108] | 5.6
22 | CCc1n[nH]c2c(OC)cc(C(=O)N3CCC4(CC3)CC(=O)c3nc(C(C)(C)C)sc3C4)cc12 [Example 107] | 12.3
23 | CC(C)(C)c1nc2c(s1)CC1(CCN(C(=O)c3ccc(Cl)c4cc[nH]c34)CC1)CC2=O [Example 89] | 6.3
24 | CCOc1cc(C(=O)N2CCC3(CC2)Cc2sc(C(C)(C)C)nc2C(O)C3)cc2c(C)nn(C)c12 (racemic) [Example 109, rac-(R)-(2-(tert-butyl)-4-hydroxy-4,7-dihydro-5H-spiro[benzo[d]thiazole-6,4′-piperidin]-1′-yl)(7-ethoxy-1,3-dimethyl-1H-indazol-5-yl)methanone] | 23.2
25 | COc1cc(C(=O)N2CCC3(CC2)CC(=O)c2nc(C(C)(C)C)sc2C3)c2[nH]nc(C)c2c1 [Example 98] | 8.6
26 | 2-(tert-butyl)-1′-(4-chloro-5-methoxy-1H-indole-7-carbonyl)-5H-spiro[benzo[d]thiazole-6,4′-piperidin]-4(7H)-one [Example 37] | 1.3
27 | Cc1cc(C(=O)N2CCC3(CC2)CC(=O)c2nc(C(C)(C)C)sc2C3)c2[nH]ncc2c1Cl [Example 34, 2-(tert-butyl)-1′-(4-chloro-5-methyl-1H-indazole-7-carbonyl)-5H-spiro[benzo[d]thiazole-6,4′-piperidin]-4(7H)-one] | 1.3
28 | COc1cc(C(=O)N2CCC3(CC2)CC(=O)c2nc(C(C)C)sc2C3)cc2c(C)nn(C)c12 [Example 10, 2-isopropyl-1′-(7-methoxy-1,3-dimethyl-1H-indazole-5-carbonyl)-5H-spiro[benzo[d]thiazole-6,4′-piperidin]-4(7H)-one] | 10
29 | Cc1cc(C(=O)N2CCC3(CC2)CC(=O)c2nc(C(C)(C)C)sc2C3)cc2c(Cl)n[nH]c12 [Example 50] | 5.4
30 | Cc1cc(C(=O)N2CCC3(CC2)CC(=O)c2nc(C(C)(C)C)sc2C3)c(O)c2ccccc12 [Example 52] | 2.4
31 | COc1cc(C(=O)N2CCC3(CC2)CC(=O)c2nc(C(C)(C)C)sc2C3)cc(-c2ccccc2)n1 [Example 69] | 16.1
32 | CCOc1cnc2c(C)cc(C(=O)N3CCC4(CC3)CC(=O)c3nc(C(C)(C)C)sc3C4)cc2c1 [Example 20, 2-(tert-butyl)-1′-(3-ethoxy-8-methylquinoline-6-carbonyl)-5H-spiro[benzo[d]thiazole-6,4′-piperidin]-4(7H)-one] | 30.1
33 | CSc1cnc2c(C)cc(C(=O)N3CCC4(CC3)CC(=O)c3nc(C(C)(C)C)sc3C4)cc2c1 [Example 21, 2-(tert-butyl)-1′-(8-methyl-3-(methylthio)quinoline-6-carbonyl)-5H-spiro[benzo[d]thiazole-6,4′-piperidin]-4(7H)-one] | 3.6
34 | Cc1cc(C(=O)N2CCC3(CC2)CC(=O)c2nc(C(C)(C)C)sc2C3)cc2c(C3CC3)nccc12 [Example 25, 2-(tert-butyl)-1′-(1-cyclopropyl-5-methylisoquinoline-7-carbonyl)-5H-spiro[benzo[d]thiazole-6,4′-piperidin]-4(7H)-one] | 6.6
35 | COc1cc(C(=O)N2CCC3(CC2)CC(=O)c2nc(C(C)(C)C)sc2C3)c2[nH]ncc2c1 [Example 75] | 17.6
36 | Cc1cc(C(=O)N2CCC3(CC2)CC(=O)c2nc(C(C)(C)C)sc2C3)c2[nH]ncc2c1C [Example 35, 2-(tert-butyl)-1′-(4,5-dimethyl-1H-indazole-7-carbonyl)-5H-spiro[benzo[d]thiazole-6,4′-piperidin]-4(7H)-one] | 2.6
37 | COc1cc(C(=O)N2CCC3(CC2)CC(=O)c2nc(C(C)(C)C)sc2C3)cc2c1c(C)nn2C [Example 103] | 5.4
38 | COc1cc(C(=O)N2CCC3(CC2)CC(=O)c2nc(C(C)(C)C)sc2C3)nc2c(OC)cccc12 [Example 86] | 14.3

From patent US20240109915A1, “NOVEL ACC INHIBITORS” (Pfizer Inc., priority 2022, published 2024)
